The values that follow come from patent US6528655B1, “Aromatic derivatives with HIV integrase inhibitory properties” (Pharmacor, Inc., priority 2000, dated 2003).

Like-named read-outs stand apart in the source and are kept apart here.

The target of this assay is HIV-1 integrase (Human immunodeficiency virus type 1 group M subtype B, UniProt P04585). Put plainly: HIV-1 integrase inhibition assay (radiolabeled duplex substrate corresponding to the U5 end of the HIV LTR). Format: biochemical. The protocol:
For the purpose of Table 1 to 4, the HIV-1 integrase inhibition assay was carried out following a known procedure (Burke, Jr. T. R. et al., J. Med. Chem. 38, 4171-4178 (1995)). A suitable radiolabeled duplex substrate corresponding to the U5 end of the HIV LTR was used.
For the purposes of Table 1 to 4 the HIV-1 integrase inhibition assay was based on a known procedure (Hazuda, D. J. et al., Nucleic Acids Res. 22 1121-1122 (1994)).

Where [1] appears, read: Table 4, compounds of formula I′, read-out: IC50.

Usually IC50 stands for the concentration that inhibits the measured activity by half.

With `COc1ccc(NC(=O)[C@H](CCC(=O)NC(c2ccccc2)(c2ccccc2)c2ccccc2)NC(=O)c2cc3ccccc3n2Cc2ccc(F)cc2)cc1O` [Example 109, N-[Nα-(N′-(4-Fluorobenzyl)indole-2-carbonyl)-Nδ-trityl-L-glutaminyl]-3-hydroxy-4-methoxyaniline], the 50% inhibitory concentration (IC50) under setting [1] turned out to be 5.3 µM. The compound `COc1ccc(NC(=O)[C@H](CCC(=O)NC(c2ccccc2)(c2ccccc2)c2ccccc2)NC(=O)c2ccc(OCc3ccc(F)cc3)c(OCc3ccc(F)cc3)c2)cc1O` [Example 111, N-[Nα-(3,4-di-(4-Fluorobenzyloxy)benzoyl)-Nδ-trityl-L-glutaminyl]-3-hydroxy-4-methoxyaniline] showed a concentration for half-maximal inhibition (IC50) of 6.1 µM. On the same count and under the same terms, next, `COc1ccc(NC(=O)[C@H](CCC(=O)NC(c2ccccc2)(c2ccccc2)c2ccccc2)NC(=O)/C=C/c2ccc(OCc3ccc(F)cc3)c(OCc3ccc(F)cc3)c2)cc1O` [Example 112, N-[Nα-(3,4-di-(4-Fluorobenzyloxy)caffeoyl)-Nδ-trityl-L-glutaminyl]-3-hydroxy-4-methoxyaniline]: 2 µM; `COc1ccc(NC(=O)[C@H](CCC(=O)NC(c2ccccc2)(c2ccccc2)c2ccccc2)NC(=O)c2cc3cc(F)ccc3[nH]2)cc1O` [Example 113, N-[Nα-(5-Fluoroindole-2-carbonyl)-Nδ-trityl-L-glutaminyl]-3-hydroxy-4-methoxyaniline]: 6.5 µM. Consider “N-[Nα-(N′-(4-Fluorobenzyl)indole-2-carbonyl)-Oδ-tert-butyl-L-glutamyl]benzylamine [Example 89]”, for which, under setting [1], the IC50 was > 10 µM. As to “Nα,Nε-di-(3,5-Dihydroxynaphthyl-2-carbonyl)-L-lysine [Example 65]”, the IC50 (Table 2, compounds of formula III′, read-out: IC50) is > 5 µM.
